Counter-ions that a name gives are not always drawn.
target: PDE10A; assay: Phosphodiesterase assay (TR-FRET, LANCE cAMP kit); type: biochemical; conditions: PDE10A (BPS Bioscience) 200 pg/well, biotin-cAMP substrate, 60 min at room temperature
Description: (§1) The PDE assay is based on the homogenous time-resolved fluorescence resonance energy transfer (TR-FRET) technology (LANCE® from Perkin Elmer). […] When there is PDE activity, resulting in the degradation of the cyclic nucleotide, the complex is not formed and a decrease in signal is observed.
(§2) The phosphodiesterase assay was developed using the LANCE® cAMP kit (PerkinElmer). The assay buffer contained HBSS with 5 mM HEPES, 0.1% BSA, and 1.5 mM MgCl2, pH 7.4. PDE10A (BPS Bioscience) was used at 200 pg/well (with a specific activity of 3200 pmole/min/μg with assay conditions: 10 mM Tris-HCl, pH7.4, 10 mM MgCl2, 1 mM MnCl2, 200 μM cAMP, 2.5 kU 5′ nucleotidase, 37° C., 20 min). […] Chemical compounds were dissolved in DMSO (final concentration 2% (v/v)).
(§3) In a 384-well plate, 2 μL inhibitor and 3 μL PDE were added to the well, followed by the addition of 5 μl substrate biotinylated cAMP (1:5). After 60 min incubation at room temperature, 10 μL of assay detection mixture was added to the assay plate. After 1 h at room temperature, the signal was measured on EnVision™ (Perkin Elmer).

SMILES	IC50
CCCc1nc(O)c(Cc2cc3cc4c(cc3nc2N(C)C)OCO4)c2cc(OC)c(OC)cc12 [Compound 63, 4-((6-(dimethylamino)-[1,3]dioxolo[4,5-g]quinolin-7-yl)methyl)-6,7-dimethoxy-1-propylisoquinolin-3-ol dihydrochloride]	0.56 µM
CCCc1nc(N)c(Cc2ccc3oc4ccccc4c3c2)c2cc(OC)c(OC)cc12 [Compound 65, 4-(dibenzo[b,d]furan-2-ylmethyl)-6,7-dimethoxy-1-propylisoquinolin-3-amine hydrochloride]	0.967 µM
CCc1nc(O)c(Cc2cc3cc(OC)ccc3nc2NCCNC(C)=O)c2cc(OC)c(OC)cc12 [Compound 69, N-(2-(3-((1-Ethyl-3-hydroxy-6,7-dimethoxyisoquinolin-4-yl)methyl)-6-methoxyquinolin-2-ylamino)ethyl)acetamide dihydrochloride]	0.0015 µM
CCCc1nc(O)c(Cc2cc3cc(OC)c(F)cc3nc2NCC)c2cc(OC)c(OC)cc12 [Compound 70, 4-((2-(Ethylamino)-7-fluoro-6-methoxyquinolin-3-yl)methyl)-6,7-dimethoxy-1-propylisoquinolin-3-ol dihydrochloride]	0.0024 µM
COc1ccc2nc(NCCNC(C)=O)c(Cc3c(O)nc(C)c4cc(OC)c(OC)cc34)cc2c1 [Compound 73, N-(2-(3-((3-hydroxy-6,7-dimethoxy-1-methylisoquinolin-4-yl)methyl)-6-methoxyquinolin-2-ylamino)ethyl)acetamide dihydrochloride]	0.0027 µM
CCCc1nc(O)c(Cc2cnc3ccccc3c2)c2cc(OC)c(OC)cc12 [Compound 74, 6,7-dimethoxy-1-propyl-4-(quinolin-3-ylmethyl)isoquinolin-3-ol hydrochloride]	0.0061 µM
CCNc1nc2ccc(OC)cc2cc1C(=O)c1c(O)nc(C)c2cc(OC)c(OC)cc12 [Compound 75, (2-(ethylamino)-6-methoxyquinolin-3-yl)(3-hydroxy-6,7-dimethoxy-1-methylisoquinolin-4-yl)methanone dihydrochloride]	> 1 µM
CCc1nc(O)c(Cc2cnc3ccccc3c2)c2cc(OC)c(OC)cc12 [Compound 78, 1-ethyl-6,7-dimethoxy-4-(quinolin-3-ylmethyl)isoquinolin-3-ol dihydrochloride]	0.027 µM
CCc1nc(O)c(Cc2ccc3nc(C)ccc3c2)c2cc(OC)c(OC)cc12 [Compound 81, 1-Ethyl-6,7-dimethoxy-4-((2-methylquinolin-6-yl)methyl)isoquinolin-3-ol dihydrochloride]	0.0075 µM
CCNc1nc2cc(F)c(OC)cc2cc1Cc1c(O)nc(CC)c2cc(OC)c(OC)cc12 [Compound 82, 1-Ethyl-4-((2-(ethylamino)-7-fluoro-6-methoxyquinolin-3-yl)methyl)-6,7-dimethoxyisoquinolin-3-ol dihydrochloride]	0.0014 µM
CCCc1nc(O)c(Cc2cc3cc(OCC4CC4)ccc3nc2NCCNC(C)=O)c2cc(OC)c(OC)cc12 [Compound 83, N-(2-(6-(cyclopropylmethoxy)-3-((3-hydroxy-6,7-dimethoxy-1-propylisoquinolin-4-yl)methyl)quinolin-2-ylamino)ethyl)acetamide dihydrochloride]	0.01 µM
CCc1nc(O)c(Cc2cnc3ccc(OC)cc3c2)c2cc(OC)c(OC)cc12 [Compound 85, 1-ethyl-6,7-dimethoxy-4-((6-methoxyquinolin-3-yl)methyl)isoquinolin-3-ol dihydrochloride]	0.0004 µM
CCc1nc(O)c(Cc2cc3cc(OCC4CC4)ccc3nc2NCCNC(C)=O)c2cc(OC)c(OC)cc12 [Compound 87, N-(2-((6-(cyclopropylmethoxy)-3-((1-ethyl-3-hydroxy-6,7-dimethoxyisoquinolin-4-yl)methyl)quinolin-2-yl)amino)ethyl)acetamide dihydrochloride]	0.0039 µM

Now from value to compound:

IC50	SMILES
0.016 µM	CCCc1nc(O)c(Cc2cc3cc(OC)ccc3nc2CC)c2cc(OC)c(OC)cc12 [Compound 66, 4-((2-ethyl-6-methoxyquinolin-3-yl)methyl)-6,7-dimethoxy-1-propylisoquinolin-3-ol dihydrochloride]
0.0018 µM	CCNc1nc2ccc(OC)cc2cc1Cc1c(O)nc(COC)c2cc(OC)c(OC)cc12 [Compound 67, 4-((2-(ethylamino)-6-methoxyquinolin-3-yl)methyl)-6,7-dimethoxy-1-(methoxymethyl)isoquinolin-3-ol dihydrochloride]
0.2 µM	CCc1nc(O)c(Cc2cc3cc(OC)ccc3nc2N=[N+]=[N-])c2cc(OC)c(OC)cc12 [Compound 68, 4-((2-Azido-6-methoxyquinolin-3-yl)methyl)-1-ethyl-6,7-dimethoxyisoquinolin-3-ol dihydrochloride]
0.093 µM	CCCCc1nc2ccc(OC)cc2cc1Cc1c(O)nc(CCC)c2cc(OC)c(OC)cc12 [Compound 71, 4-((2-Butyl-6-methoxyquinolin-3-yl)methyl)-6,7-dimethoxy-1-propylisoquinolin-3-ol dihydrochloride]
0.445 µM	CCCc1nc(O)c(Cc2cc3cc(OC)ccc3nc2C(F)(F)F)c2cc(OC)c(OC)cc12 [Compound 72, 6,7-Dimethoxy-4-((6-methoxy-2-(trifluoromethyl)quinolin-3-yl)methyl)-1-propylisoquinolin-3-ol hydrochloride]
0.0023 µM	CCCc1nc(O)c(Cc2cc3cc(OC)ccc3nc2NCCOC)c2cc(OC)c(OC)cc12 [Compound 76, 6,7-dimethoxy-4-((6-methoxy-2-(2-methoxyethylamino)quinolin-3-yl)methyl)-1-propylisoquinolin-3-ol dihydrochloride]
0.0016 µM	CCCc1nc(O)c(Cc2cnc3ccc(OC)cc3c2)c2cc(OC)c(OC)cc12 [Compound 84, 6,7-Dimethoxy-4-((6-methoxyquinolin-3-yl)methyl)-1-propylisoquinolin-3-ol dihydrochloride]

target: PDE10A (Homo sapiens, UniProt Q9Y233); assay: Phosphodiesterase assay (TR-FRET, LANCE cAMP kit); type: biochemical; conditions: PDE10A (BPS Bioscience) 200 pg/well, biotin-cAMP substrate, 60 min at room temperature
Description: as §1, §2, §3

Chain of PDE10A (Homo sapiens, UniProt Q9Y233) (Q9Y233 whole entry, looked up): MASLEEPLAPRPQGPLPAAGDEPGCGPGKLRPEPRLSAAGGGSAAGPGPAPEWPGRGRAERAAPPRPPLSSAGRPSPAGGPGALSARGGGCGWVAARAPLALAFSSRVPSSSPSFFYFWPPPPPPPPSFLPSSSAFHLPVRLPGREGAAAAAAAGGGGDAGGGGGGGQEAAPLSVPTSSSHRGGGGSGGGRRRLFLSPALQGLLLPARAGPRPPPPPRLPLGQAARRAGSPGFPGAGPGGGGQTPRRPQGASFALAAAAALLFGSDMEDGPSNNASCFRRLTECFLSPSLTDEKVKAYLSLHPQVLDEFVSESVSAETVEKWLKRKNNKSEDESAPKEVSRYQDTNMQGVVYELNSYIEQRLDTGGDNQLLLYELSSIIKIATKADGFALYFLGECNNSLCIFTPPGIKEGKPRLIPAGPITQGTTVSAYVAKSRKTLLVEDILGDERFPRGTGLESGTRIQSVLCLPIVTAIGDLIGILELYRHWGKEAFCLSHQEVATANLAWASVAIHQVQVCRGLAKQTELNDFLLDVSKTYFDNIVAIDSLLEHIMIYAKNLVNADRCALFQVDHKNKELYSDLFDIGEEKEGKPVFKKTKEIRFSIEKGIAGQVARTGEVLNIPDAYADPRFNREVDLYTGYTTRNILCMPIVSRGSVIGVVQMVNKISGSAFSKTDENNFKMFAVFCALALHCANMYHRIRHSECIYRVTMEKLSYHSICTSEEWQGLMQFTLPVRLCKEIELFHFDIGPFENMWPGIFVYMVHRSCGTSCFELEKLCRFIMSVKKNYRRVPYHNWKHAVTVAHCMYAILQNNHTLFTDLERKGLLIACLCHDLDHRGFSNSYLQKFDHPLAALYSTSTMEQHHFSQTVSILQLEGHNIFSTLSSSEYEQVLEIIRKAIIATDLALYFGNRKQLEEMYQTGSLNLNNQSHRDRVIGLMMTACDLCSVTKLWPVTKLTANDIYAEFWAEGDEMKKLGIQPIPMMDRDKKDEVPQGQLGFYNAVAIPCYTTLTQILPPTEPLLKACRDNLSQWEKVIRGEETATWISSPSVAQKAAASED

SMILES	IC50
COc1cc2c(C)nc(O)c(Cc3cccc(Oc4ccccc4)c3)c2cc1OC [Compound 4, 6,7-dimethoxy-1-methyl-4-(3-phenoxybenzyl)isoquinolin-3-ol hydrochloride]	0.14 µM
COc1cc2c(C)nc(O)c(Cc3ccncc3)c2cc1OC [Compound 11, 6,7-dimethoxy-1-methyl-4-(pyridin-4-ylmethyl)isoquinolin-3-ol hydrochloride]	0.223 µM
COc1ccc(-c2cccc(Cc3c(O)nc(C)c4cc(OC)c(OC)cc34)n2)cc1 [Compound 13, 6,7-dimethoxy-4-((6-(4-methoxyphenyl)pyridin-2-yl)methyl)-1-methylisoquinolin-3-ol dihydrochloride]	0.05 µM
COc1cc2c(C)nc(O)c(Cc3cncc(-c4ccccc4)c3)c2cc1OC [Compound 15, 6,7-Dimethoxy-1-methyl-4-((5-phenylpyridin-3-yl)methyl)isoquinolin-3-ol dihydrochloride]	0.097 µM
CCc1nc(O)c(Cc2ccc3ccccc3c2)c2cc(OC)c(OC)cc12 [Compound 19, 1-ethyl-6,7-dimethoxy-4-(naphthalen-2-ylmethyl)isoquinolin-3-ol hydrochloride]	0.011 µM
COc1cc2c(C)nc(O)c(Cc3ccc4cnccc4c3)c2cc1OC [Compound 21, 4-(Isoquinolin-6-ylmethyl)-6,7-dimethoxy-1-methylisoquinolin-3-ol dihydrochloride]	0.333 µM
COc1cc2c(C)nc(O)c(Cc3cccc4cnccc34)c2cc1OC [Compound 22, 4-(Isoquinolin-5-ylmethyl)-6,7-dimethoxy-1-methylisoquinolin-3-ol dihydrochloride]	0.333 µM
COc1cc2c(C)nc(O)c(Cc3ccnc4ccccc34)c2cc1OC [Compound 25, 6,7-Dimethoxy-1-methyl-4-(quinolin-4-ylmethyl)isoquinolin-3-ol dihydrochloride]	0.265 µM
COc1ccc2cc(Cc3c(O)nc(C)c4cc(OC)c(OC)cc34)cnc2c1 [Compound 29, 6,7-Dimethoxy-4-((7-methoxyquinolin-3-yl)methyl)-1-methylisoquinolin-3-ol dihydrochloride]	0.029 µM
CCOc1ccc2cc(Cc3c(O)nc(C)c4cc(OC)c(OC)cc34)cnc2c1 [Compound 30, 4-((7-ethoxyquinolin-3-yl)methyl)-6,7-dimethoxy-1-methylisoquinolin-3-ol dihydrochloride]	0.021 µM

Second part, the compound after the results:

IC50	SMILES
0.0015 µM	CCCc1nc(O)c(Cc2cc3cc(C)ccc3nc2NCC)c2cc(OC)c(OC)cc12 [Compound 35, 4-((2-(Ethylamino)-6-methylquinolin-3-yl)methyl)-6,7-dimethoxy-1-propylisoquinolin-3-ol dihydrochloride]
0.698 µM	CCCc1nc(O)c(Cc2cc3cc(C)ccc3nc2N(C)C)c2cc(OC)c(OC)cc12 [Compound 36, 4-((2-(Dimethylamino)-6-methylquinolin-3-yl)methyl)-6,7-dimethoxy-1-propylisoquinolin-3-ol dihydrochloride]
0.0027 µM	CCCNc1nc2ccc(OC)cc2cc1Cc1c(O)nc(C)c2cc(OC)c(OC)cc12 [Compound 38, 6,7-dimethoxy-4-((6-methoxy-2-(propylamino)quinolin-3-yl)methyl)-1-methylisoquinolin-3-ol dihydrochloride]
0.0035 µM	CCc1nc(O)c(Cc2cc3cc(OC)ccc3nc2NC(C)C)c2cc(OC)c(OC)cc12 [Compound 43, 1-Ethyl-4-((2-(isopropylamino)-6-methoxyquinolin-3-yl)methyl)-6,7-dimethoxyisoquinolin-3-ol dihydrochloride]

Source: patent US8772316B2, “Substituted 6,7-dialkoxy-3-isoquinolinol derivatives as inhibitors of phosphodiesterase 10 (PDE10A)” (Allergan, Inc., priority 2011, dated 2014)
